Patent US8642807B2, “Crystallized diacetylenic indicator compounds and methods of preparing the compounds” (Temptime Corporation, priority 2007, dated 2014)

Assays:
Assay type in all cases: physicochemical
[1] = Room temperature solubilities in various solvent systems (Table 3); settings: for Solubility: 20° C., material recrystallized from acetic acid
Text: As is the case elsewhere herein, the acetone/water and ethanol/water solvent mixtures are given in weight-for-weight proportions in Table 3 and FIG. 10. It can be seen from Table 3 and FIG. 10 that some of the solvent systems displaying elevated solubility at higher temperatures, for example acetic acid and the several aqueous mixtures, have only limited solubility at room temperature.

[2] = Further solubility tests at 1, 4, 7 and 10 percent by weight, 90° C. water bath (Example 2)
Experimental: A 90° C. water bath is employed to maintain the solvent or solution temperature and results obtainable are tabulated in Table 2 below, solubility parameter information again being included to facilitate understanding of the data for acetone and water, for reference.

[3] = Solubility in 1,1,3,3-tetramethyl urea at 90° C. in a closed vial; settings: tetramethyl urea (TMU)
Experimental: 1,1,3,3tetramethyl urea, also called “tetramethyl urea” and sometimes referenced “TMU” can dissolve up to 7% weight 2,4-hexadiyn-1,6-bis(ethylurea) at a temperature of 90° C. in a closed vial.

[4] = Solubility test: ability of each solvent to dissolve at least 1 percent by weight at a process temperature near its boiling point (Example 1)
Text: This example illustrates solvent mapping, testing and solubility region definition for a diacetylenic monomer for which new solvents and solubility information are desired, namely 2,4-hexadiyn-1,6-bis(ethylurea) and for which reliable solubility parameter information is not available. In this example, solubility points are mapped for each of a number of representative samples of a wide range of solvents of different chemical types and physicochemical characteristics, according to their solubility parameters. The solubility points of the representative solvents (filled squares) are mapped on a plot of hydrogen bonding (δH), on the Y-axis, versus polar parameters (δP), on the X-axis, generating a map such as that shown in FIG. 4. Also shown in FIG. 4 are solubility points for solvent systems comprising 25 percent by weight water/solvent mixtures (unfilled squares).
Each solvent is tested for its ability to dissolve at least 1 percent by weight 2,4-hexadiyn-1,6-bis(ethylurea) at a temperature not more than 5° C. above the boiling point of the solvent. Because the boiling points of the solvents tested vary widely, ranging from 56° C. to 189° C. the solvents are processed in batches at temperatures of 60, 75, 82, and 90° C., respectively. The process temperature desirably is not greater than 4 to 5° C. above a given solvent's boiling point.
Some exemplary solubility data obtainable for 2,4-hexadiyn-1,6-bis(ethylurea) from the above-described solubility test with the solvents indicated, are set forth in Table 1 below along with solubility parameter information for the solvents. Also included in Table 1 are data regarding the 25 percent by weight water/solvent mixtures.

[5] = solvent 1-Propanol, 90° C. water bath
[6] = solvent 2-Propanol (IPA), 90° C. water bath
[7] = solvent 25% Water/Acetone, 90° C. water bath
[8] = solvent 25% Water/DMF, 90° C. water bath
[9] = solvent 25% Water/DMSO, 90° C. water bath
[10] = solvent 25% Water/Ethanol, 90° C. water bath
[11] = solvent 25% Water/IPA, 90° C. water bath
[12] = solvent 25% water/acetic acid, 90° C. water bath
[13] = solvent 25% water/formic acid, 90° C. water bath
[14] = solvent Acetic acid, 90° C. water bath
[15] = solvent Acetone, 90° C. water bath
[16] = solvent DMSO, 90° C. water bath
[17] = solvent Ethanol, 90° C. water bath
[18] = solvent Ethylene Glycol, 90° C. water bath
[19] = solvent Formic acid, 90° C. water bath
[20] = solvent Methanol, 90° C. water bath
[21] = solvent Pyridine, 90° C. water bath
[22] = solvent Water, 90° C. water bath

Structure (SMILES): CCNC(=O)NCC#CC#CCNC(=O)NCC [KE, 2,4-hexadiyn-1,6-bis(ethylurea)]
- Solubility ([1]; Acetic acid): 0.6 wt. % of the Solution
- Solubility ([1]; Acetone/water 4:1 (weight for weight)): 0.16 wt. % of the Solution
- Solubility ([1]; DMF): 4 wt. % of the Solution
- Solubility ([1]; DMSO): 4 wt. % of the Solution
- Solubility ([1]; Dichloroacetic acid): 33 wt. % of the Solution
- Solubility ([1]; Ethanol/water 4:1 (weight for weight)): 0.18 wt. % of the Solution
- Solubility ([1]; Ethyl alcohol): 0.17 wt. % of the Solution
- Solubility ([1]; Formic acid): 23 wt. % of the Solution
- Solubility ([1]; Isopropyl alcohol): 0.09 wt. % of the Solution
- Solubility ([1]; Methyl alcohol “MeOH”): 0.27 wt. % of the Solution
- Solubility ([1]; Tetramethyl urea): 0.90 wt. % of the Solution
- Solubility ([1]; Trifluoroaceticacetic acid): 30 wt. % of the Solution
- amount solvated by formic acid ([1]; formic acid, room temperature): ~13 % by weight
- Solubility ([2]; 25% water/ethanol mixture (1 part water, 3 parts ethanol by weight)): at least 4 percent by weight
- Solubility ([2]; dimethyl sulfoxide, 90° C. water bath): > 10%
- Solubility ([2]; formic acid, 90° C. water bath): > 10%
- Solubility ([2]; pure ethanol): less than 4 percent by weight
- Is KE soluble at 1%? [2, 5]: Yes
- Is KE soluble at 4%? [2, 5]: No
- Is KE soluble at 7%? [2, 5]: No
- Is KE soluble at 10%? [2, 5]: No
- Is KE soluble at 1%? [2, 6]: Yes
- Is KE soluble at 4%? [2, 6]: No
- Is KE soluble at 7%? [2, 6]: No
- Is KE soluble at 10%? [2, 6]: No
- Is KE soluble at 1%? [2, 7]: Yes
- Is KE soluble at 4%? [2, 7]: Yes
- Is KE soluble at 7%? [2, 7]: No
- Is KE soluble at 10%? [2, 7]: No
- Is KE soluble at 1%? [2, 8]: Yes
- Is KE soluble at 4%? [2, 8]: Yes
- Is KE soluble at 7%? [2, 8]: Yes
- Is KE soluble at 10%? [2, 8]: No
- Is KE soluble at 1%? [2, 9]: Yes
- Is KE soluble at 4%? [2, 9]: Yes
- Is KE soluble at 7%? [2, 9]: No
- Is KE soluble at 10%? [2, 9]: No
- Is KE soluble at 1%? [2, 10]: Yes
- Is KE soluble at 4%? [2, 10]: Yes
- Is KE soluble at 7%? [2, 10]: No
- Is KE soluble at 10%? [2, 10]: No
- Is KE soluble at 1%? [2, 11]: Yes
- Is KE soluble at 4%? [2, 11]: No
- Is KE soluble at 7%? [2, 11]: No
- Is KE soluble at 10%? [2, 11]: No
- Is KE soluble at 1%? [2, 12]: Yes
- Is KE soluble at 4%? [2, 12]: Yes
- Is KE soluble at 7%? [2, 12]: Yes
- Is KE soluble at 10%? [2, 12]: No
- Is KE soluble at 1%? [2, 13]: Yes
- Is KE soluble at 4%? [2, 13]: Yes
- Is KE soluble at 7%? [2, 13]: Yes
- Is KE soluble at 10%? [2, 13]: No
- Is KE soluble at 1%? [2, 14]: Yes
- Is KE soluble at 4%? [2, 14]: Yes
- Is KE soluble at 7%? [2, 14]: Yes
- Is KE soluble at 10%? [2, 14]: Yes
- Is KE soluble at 1%? [2, 15]: No
- Is KE soluble at 4%? [2, 15]: No
- Is KE soluble at 7%? [2, 15]: No
- Is KE soluble at 10%? [2, 15]: No
- Is KE soluble at 1%? ([2]; solvent DMF, 90° C. water bath): Yes
- Is KE soluble at 4%? ([2]; solvent DMF, 90° C. water bath): Yes
- Is KE soluble at 7%? ([2]; solvent DMF, 90° C. water bath): Yes
- Is KE soluble at 10%? ([2]; solvent DMF, 90° C. water bath): Yes
- Is KE soluble at 1%? [2, 16]: Yes
- Is KE soluble at 4%? [2, 16]: Yes
- Is KE soluble at 7%? [2, 16]: Yes
- Is KE soluble at 10%? [2, 16]: Yes
- Is KE soluble at 1%? [2, 17]: Yes
- Is KE soluble at 4%? [2, 17]: No
- Is KE soluble at 7%? [2, 17]: No
- Is KE soluble at 10%? [2, 17]: No
- Is KE soluble at 1%? [2, 18]: Yes
- Is KE soluble at 4%? [2, 18]: No
- Is KE soluble at 7%? [2, 18]: No
- Is KE soluble at 10%? [2, 18]: No
- Is KE soluble at 1%? [2, 19]: Yes
- Is KE soluble at 4%? [2, 19]: Yes
- Is KE soluble at 7%? [2, 19]: Yes
- Is KE soluble at 10%? [2, 19]: Yes
- Is KE soluble at 1%? [2, 20]: Yes
- Is KE soluble at 4%? [2, 20]: Yes
- Is KE soluble at 7%? [2, 20]: No
- Is KE soluble at 10%? [2, 20]: No
- Is KE soluble at 1%? [2, 21]: Yes
- Is KE soluble at 4%? [2, 21]: No
- Is KE soluble at 7%? [2, 21]: No
- Is KE soluble at 10%? [2, 21]: No
- Is KE soluble at 1%? [2, 22]: No
- Is KE soluble at 4%? [2, 22]: No
- Is KE soluble at 7%? [2, 22]: No
- Is KE soluble at 10%? [2, 22]: No
- solubility in water ([2]; water): insoluble
- Solubility ([2]; water and acetone combined (25% Water/Acetone)): at least 4 percent by weight
- amount dissolved by 1,1,3,3-tetramethyl urea [3]: up to 7 % weight
- amount dissolved ([4]; N,N-dimethyl formamide (DMF)): at least 1 percent by weight
- amount dissolved ([4]; acetic acid): at least 1 percent by weight
- amount dissolved ([4]; dimethyl sulfoxide (DMSO)): at least 1 percent by weight
- amount dissolved ([4]; ethanol (EtOH)): at least 1 percent by weight
- amount dissolved ([4]; ethylene glycol): at least 1 percent by weight
- amount solvated by pyridine ([4]; pyridine): about 1 % by weight
- KE soluble at 1% wt? ([4]; solvent Acrylonitrile, process T 75 °C): No
- KE soluble at 1% wt? ([4]; solvent Benzene, process T 75 °C): No
- KE soluble at 1% wt? ([4]; solvent Ethanol, process T 75 °C): Yes
- KE soluble at 1% wt? ([4]; solvent Ethyl acetate, process T 75 °C): No
- KE soluble at 1% wt? ([4]; solvent THF, process T 60 °C): No
- KE soluble at 1% wt? ([4]; solvent n-Hexane, process T 75 °C): No
- amount dissolved ([4]; the water/solvent mixtures (25 percent by weight water), all): at least 1 percent by weight
